Assay: Inhibition of HIV1 YU2 gp120 binding to CD4 expressing Cf2Th-CD4/CCR5 cells assessed as inhibition of viral infection after 48 hrs

First: CCCN1CCCC(NC(=O)C(=O)Nc2ccc(Cl)c(F)c2)C1 (centres undefined) [N1-(4-chloro-3-fluorophenyl)-N2-(1-propylpiperidin-3-yl)oxalamide]
Second: CCCN1CCC(NC(=O)C(=O)Nc2ccc(Cl)c(F)c2)CC1 [N1-(4-chloro-3-fluorophenyl)-N2-(1-propylpiperidin-4-yl)oxalamide]
The IC50 of the first is lower: 58 µM for the first, over 100 µM for the second.

CC(NC(=O)C(=O)Nc1ccc(Cl)c(F)c1)c1ccc(S(N)(=O)=O)cc1 (centres undefined) [N1-(4-chloro-3-fluorophenyl)-N2-(1-(4-sulfamoylphenyl)ethyl)oxalamide] and CNC(=O)c1ccc(CNC(=O)C(=O)Nc2ccc(Cl)c(F)c2)cc1 [N1-(4-chloro-3-fluorophenyl)-N2-(4-(methylcarbamoyl)benzyl)oxalamide] cannot be ordered by IC50: over 100 µM for the first, over 100 µM for the second.

Compared with CC1(C)CC(NC(=O)C(=O)Nc2ccc3cc[nH]c3c2)CC(C)(C)N1 [4-(2-(1H-indol-6-ylamino)-2-oxoacetamido)-2,2,6,6-tetramethylpiperidinium], CC1(C)CC(NC(=O)C(=O)Nc2ccc(Cl)c(F)c2)CC(C)(C)N1 [N1-(4-chloro-3-fluorophenyl)-N2-(2,2,6,6-tetramethylpiperidin-4-yl)oxalamide] is lower in IC50: over 100 µM for the first, 74.8 µM for the second. The second is the more potent here.

First: CN1C(C)(C)CC(NC(=O)C(=O)Nc2ccc(Cl)c(F)c2)CC1(C)C [N1-(4-chloro-3-fluorophenyl)-N2-(1,2,2,6,6-pentamethylpiperidin-4-yl)oxalamide]
Second: CC1(C)CC(NC(=O)C(=O)Nc2ccc(Cl)cc2Cl)CC(C)(C)N1 [N1-(2,4-dichlorophenyl)-N2-(2,2,6,6-tetramethylpiperidin-4-yl)oxalamide]
The IC50 of the first is lower: 65.8 µM for the first, over 100 µM for the second.

O=C(Nc1ccc(Cl)cc1)C(=O)c1c[nH]c2ccccc12 [N-(4-chlorophenyl)-2-(1H-indol-3-yl)-2-oxoacetamide] and COc1cccc(NC(=O)C(=O)Nc2ccc(Cl)cc2)c1 [N1-(4-chlorophenyl)-N2-(3-methoxyphenyl)oxalamide] cannot be ordered by IC50: over 100 µM for the first, over 100 µM for the second.

CC1(C)CC(NC(=O)C(=O)Nc2ccc(-n3cc(-c4ccccc4)nn3)cc2)CC(C)(C)N1 [N1-(4-(4-phenyl-1H-1,2,3-triazol-1-yl)phenyl)-N2-(2,2,6,6-tetramethylpiperidin-4-yl)oxalamide] and CC1(C)CC(NC(=O)C(=O)Nc2ccc(-n3cc(CCc4ccccc4)nn3)cc2)CC(C)(C)N1 [N1-(4-(4-phenethyl-1H-1,2,3-triazol-1-yl)phenyl)-N2-(2,2,6,6-tetramethylpiperidin-4-yl)oxalamide] cannot be ordered by IC50: over 100 µM for the first, over 100 µM for the second.

Cc1ccc(N(C)C)cc1NC(=O)COc1ccc(Cl)cc1 [2-(4-chlorophenoxy)-N-(5-(dimethylamino)-2-methylphenyl)acetamide] and O=C(COc1ccc(Cl)cc1)Nc1cc(=O)[nH]c(=O)[nH]1 [2-(4-chlorophenoxy)-N-(2,6-dioxo-1,2,3,6-tetrahydropyrimidin-4-yl)acetamide] cannot be ordered by IC50: over 100 µM for the first, over 100 µM for the second.

CC1(C)CC(NC(=O)C(=O)Nc2cccc(OCc3ccccc3)c2)CC(C)(C)N1 [N1-(3-(benzyloxy)phenyl)-N2-(2,2,6,6-tetramethylpiperidin-4-yl)oxalamide] and CC1(C)CC(NC(=O)C(=O)Nc2ccc(Cl)cc2OCc2ccccc2)CC(C)(C)N1 [N1-(2-(benzyloxy)-4-chlorophenyl)-N2-(2,2,6,6-tetramethylpiperidin-4-yl)oxalamide] cannot be ordered by IC50: over 100 µM for the first, over 100 µM for the second.

O=C(CSc1[nH]c(=O)nc2c1CCCC2)Nc1ccc(Cl)cc1 [N-(4-chlorophenyl)-2-(2-oxo-1,2,5,6,7,8-hexahydroquinazolin-4-ylthio)acetamide] and O=C(Nc1ccc(Cl)cc1)c1cc2c([nH]c1=O)CCCC2 [N-(4-chlorophenyl)-2-oxo-1,2,5,6,7,8-hexahydroquinoline-3-carboxamide] cannot be ordered by IC50: over 100 µM for the first, over 100 µM for the second.

Going from CN1CCCC(CNC(=O)C(=O)Nc2ccc(Cl)c(F)c2)C1 (centres undefined) [N1-(4-chloro-3-fluorophenyl)-N2-((1-methylpiperidin-3-yl)methyl)oxalamide] to CCN1CCCC1CNC(=O)C(=O)Nc1ccc(Cl)c(F)c1 (centres undefined) [N1-(4-chloro-3-fluorophenyl)-N2-((1-ethylpyrrolidin-2-yl)methyl)oxalamide], the IC50 falls from over 100 µM to 85.2 µM.

First: C[C@@H]1CCC[C@H](C)N1CCNC(=O)C(=O)Nc1ccc(Cl)c(F)c1 [N1-(4-chloro-3-fluorophenyl)-N2-(2-((2S,6R)-2,6-dimethylpiperidin-1-yl)ethyl)oxalamide]
Second: CC1CCCCN1C(C)CNC(=O)C(=O)Nc1ccc(Cl)c(F)c1 (centres undefined) [N1-(4-chloro-3-fluorophenyl)-N2-(2-(2-methylpiperidin-1-yl)propyl)oxalamide]
The IC50 of the first is lower: 75.5 µM for the first, over 100 µM for the second. The first is the more potent here.

CC1(C)NC(=O)N(C[C@H](O)COc2ccc(Cl)cc2)C1=O [(S)-3-(3-(4-chlorophenoxy)-2-hydroxypropyl)-5,5-dimethylimidazolidine-2,4-dione] and CC1(C)CC(NC(=O)C(=O)NCCc2ccc(Cl)cc2)CC(C)(C)N1 [4-(2-(4-chlorophenethylamino)-2-oxoacetamido)-2,2,6,6-tetramethylpiperidinium] cannot be ordered by IC50: over 100 µM for the first, over 100 µM for the second.

CC(C)c1ccccc1NC(=O)C(=O)NC1CC(C)(C)NC(C)(C)C1 [N1-(2-isopropylphenyl)-N2-(2,2,6,6-tetramethylpiperidin-4-yl)oxalamide] and CC(C)COc1cc(Cl)ccc1NC(=O)C(=O)NC1CC(C)(C)NC(C)(C)C1 [N1-(4-chloro-2-isobutoxyphenyl)-N2-(2,2,6,6-tetramethylpiperidin-4-yl)oxalamide] cannot be ordered by IC50: over 100 µM for the first, over 100 µM for the second.

CC1(C)CC(NC(=O)C(=O)Nc2ccc(N=[N+]=[N-])cc2)CC(C)(C)N1 [N1-(4-azidophenyl)-N2-(2,2,6,6-tetramethylpiperidin-4-yl)oxalamide] and CC1Sc2cc(C(=O)NC3CC(C)(C)NC(C)(C)C3)ccc2NC1=O (centres undefined) [2,2,6,6-tetramethyl-4-(2-methyl-3-oxo-3,4-dihydro-2H-benzo[b][1,4]thiazine-7-carboxamido)piperidinium] cannot be ordered by IC50: over 100 µM for the first, over 100 µM for the second.

Going from O=C(NCC1CCN(CCN2CCOCC2)C1)C(=O)Nc1ccc(Cl)c(F)c1 (centres undefined) [N1-(4-chloro-3-fluorophenyl)-N2-((1-(2-morpholinoethyl)pyrrolidin-3-yl)methyl)oxalamide] to O=C(NCc1ccccc1CN1CCOCC1)C(=O)Nc1ccc(Cl)c(F)c1 [N1-(4-chloro-3-fluorophenyl)-N2-(2-(morpholinomethyl)benzyl)oxalamide], the IC50 falls from over 100 µM to 20.5 µM. The second is the more potent here.

Cc1cccc(-c2cc(C(=O)Nc3ccc(Cl)cc3)[nH]n2)c1O [N-(4-chlorophenyl)-5-(2-hydroxy-3-methylphenyl)-1H-pyrazole-3-carboxamide] and O=C(Nc1ccc(Cl)cc1)c1cc(-n2cnnc2)n[nH]1 [N-(4-chlorophenyl)-5-(4H-1,2,4-triazol-4-yl)-1H-pyrazole-3-carboxamide] cannot be ordered by IC50: over 100 µM for the first, over 100 µM for the second.

Compared with CC(NC(=O)C(=O)Nc1ccc(Cl)c(F)c1)C(c1ccccc1Cl)N1CCOCC1 (centres undefined) [N1-(4-chloro-3-fluorophenyl)-N2-(1-(2-chlorophenyl)-1-morpholinopropan-2-yl)oxalamide], O=C(NCC(c1ccc(Cl)cc1)N1CCCC1)C(=O)Nc1ccc(Cl)c(F)c1 (centres undefined) [N1-(4-chloro-3-fluorophenyl)-N2-(2-(4-chlorophenyl)-2-(pyrrolidin-1-yl)ethyl)oxalamide] is lower in IC50: over 100 µM for the first, 61.4 µM for the second. The second is the more potent here.

CC1CCCN(CCC(=O)Nc2ccc(Br)cc2)C1 (centres undefined) [N-(4-bromophenyl)-3-(3-methylpiperidin-1-yl)propanamide] and C[C@H]1CCCN(CCC(=O)Nc2ccc(Cl)cc2)C1 [(3S)-1-(3-(4-chlorophenylamino)-3-oxopropyl)-3-methylpiperidinium] cannot be ordered by IC50: over 100 µM for the first, over 100 µM for the second.

Cc1cc(OCC(=O)NCc2nnc[nH]2)ccc1Cl [N-((1H-1,2,4-triazol-3-yl)methyl)-2-(4-chloro-3-methylphenoxy)acetamide] and CCc1n[nH]c(NC(=O)C(=O)Nc2ccc(Cl)c(F)c2)c1CC [N1-(4-chloro-3-fluorophenyl)-N2-(3,4-diethyl-1H-pyrazol-5-yl)oxalamide] cannot be ordered by IC50: over 100 µM for the first, over 100 µM for the second.

Going from O=C(NCC1CCNCC1)C(=O)Nc1ccc(Cl)c(F)c1 [N1-(4-chloro-3-fluorophenyl)-N2-(piperidin-4-ylmethyl)oxalamide] to O=C(Nc1ccc(Cl)c(F)c1)C(=O)NC1CCNC2(CCC2)C1 (centres undefined) [N1-(4-chloro-3-fluorophenyl)-N2-(5-azaspiro[3.5]nonan-8-yl)oxalamide], the IC50 falls from over 100 µM to 38.5 µM.

Compared with O=C(NCC1NCCc2ccccc21)C(=O)Nc1ccc(Cl)c(F)c1 (centres undefined) [N1-(4-chloro-3-fluorophenyl)-N2-((1,2,3,4-tetrahydroisoquinolin-1-yl)methyl)oxalamide], CN(C)C(CNC(=O)C(=O)Nc1ccc(Cl)c(F)c1)c1ccco1 (centres undefined) [N1-(4-chloro-3-fluorophenyl)-N2-(2-(dimethylamino)-2-(furan-2-yl)ethyl)oxalamide] is higher in IC50: 50.4 µM for the first, over 100 µM for the second. The first is the more potent here.

C[C@H](Sc1nc(N)cc(N)n1)C(=O)Nc1ccc(Cl)cc1 [(S)-N-(4-chlorophenyl)-2-(4,6-diaminopyrimidin-2-ylthio)propanamide] and O=C(Nc1ccc(Br)cc1)c1cc(CN2CCCC2)on1 [N-(4-bromophenyl)-5-(pyrrolidin-1-ylmethyl)isoxazole-3-carboxamide] cannot be ordered by IC50: over 100 µM for the first, over 100 µM for the second.

O=C(Nc1ccc(Cl)c(F)c1)C(=O)NC1CCN(C(=O)c2ccccc2)CC1 [N1-(1-benzoylpiperidin-4-yl)-N2-(4-chloro-3-fluorophenyl)oxalamide] and CN1CCN(C(CNC(=O)C(=O)Nc2ccc(Cl)c(F)c2)c2cccs2)CC1 (centres undefined) [N1-(4-chloro-3-fluorophenyl)-N2-(2-(4-methylpiperazin-1-yl)-2-(thiophen-2-yl)ethyl)oxalamide] cannot be ordered by IC50: over 100 µM for the first, over 100 µM for the second.

Cc1nn(C)cc1CN(C)CC(=O)Nc1ccc(Br)cc1 [N-(4-bromophenyl)-2-(((1,3-dimethyl-1H-pyrazol-4-yl)methyl)(methyl)amino)acetamide] and O=C(CSCc1cc(=O)[nH][nH]1)Nc1ccc(Br)cc1 [N-(4-bromophenyl)-2-((5-hydroxy-1H-pyrazol-3-yl)methylthio)acetamide] cannot be ordered by IC50: over 100 µM for the first, over 100 µM for the second.

In the case of CN(C)C(CNC(=O)C(=O)Nc1ccc(Cl)c(F)c1)N1CCCC1 (centres undefined) [N1-(4-chloro-3-fluorophenyl)-N2-(2-(dimethylamino)-2-(pyrrolidin-1-yl)ethyl)oxalamide], the IC50 is reported as over 100 µM.
